Values quoted from earlier work in paper PMC11809490 (RSC Advances, 2025).
≈ marks a conversion by molar mass, not a printed value.

Legend:
Conditions in all cases: cited from earlier work
A-549 = test system: A-549
P388 = test system: P388
MDA-MB-231 = test system: MDA-MB-231
HCT-8 = test system: HCT-8

For CN1C[C@@H](c2c[nH]c3cc(Br)ccc23)N(C)C[C@@H]1c1c[nH]c2cc(Br)ccc12 [Dragmacidin B], the “IC50 A-549” value (A-549) is given as 1 to 10 µg/mL, the “IC50 P388” value (P388) is given as 15 µg/mL (≈ 29.9 µM) and the “IC50 MDA-MB-231” value (MDA-MB-231) is given as 1 to 10 µg/mL. For the same compound, the “IC50 HCT-8” value (HCT-8) was 1 to 10 µg/mL.
